Data reported in patent publication US6500610B1, “Methods for identifying compounds for inhibiting of neoplastic lesions, and pharmaceutical compositions containing such compounds” (Cell Pathways, INC, priority 1997, dated 2002).
Where a name gives a salt, the structure may show the parent alone. Read-outs that look alike come from different tables or passages of the source.

How the values were obtained:
[1] = tested on: LNCaP prostate tumor cell line; assay: Histone-associated DNA fragmentation in LNCaP; type: cell-based; conditions: 50 μM free base, up to 4 days
Experimental: (§1) The androgen-sensitive prostate tumor cell line, LNCaP (from ATCC (Rockville, Md.)) was propogated under standard conditions using […] medium containing 5% fetal calve serum and 2 mM glutamine. Primary prostate epithelial cell cultures (PrEC) derived from normal prostate (from Clonetics Inc. (San Diego, Calif.)) were grown under the same conditions as the tumor cell line except a serum-free medium optimized for the growth of such cultures was used (Clonetics Inc). For the experiments, LNCaP or PrEC cells were seeded in 96 well plates at a density of 10,000 cells per well. After 24 hours, the cells were treated with either vehicle (0.1% DMSO) or 50 μM Compound I (free base) solubilized in DMSO. After various drug treatment times (4, 24, 48, 72, or 99 hours) the cells were lysed and processed for measurement of histone-associated DNA as an indicator of apoptotic cell death (see, Piazza et al., Cancer Research 57: 2452-2459, 1997).

NCI-H460 (Lung) = assay: Neutral red cytotoxicity assay, NCI-H460; type: cell-based, human; conditions: free base, five days
Experimental: (§2) Compound I's activity is not confined to activity against colon cancer cell lines or animal models of colon cancer. It has a broad range of anti-neoplastic effects in various neoplastic cell lines. Various types of human cancer cell lines were propagated under sterile conditions in RPMI 1640 medium with 10% fetal bovine serum, 2 mM L-glutamine and sodium bicarbonate. To determine growth inhibitory effects of Compound I, cells were seeded in 96-well plates at a density of 1000 cells per well. Twenty-four hours after plating, the cells were dosed with various concentrations of the free base of Compound I solubilized in DMSO (final concentration 0.1%). The effect of the drug on tumor cell growth was determined using the neutral red cytotoxicity assay following five days of continuous treatment. Neutral red is a dye that is selectively taken up by viable cells by an ATP-dependent transport mechanism.

rats [2] = assay: Seven-day dose-range finding study in rats; type: in vivo, rat; conditions: seven days
SW-620 (Colon) = assay: Neutral red cytotoxicity assay, SW-620; type: cell-based, human; conditions: free base, five days
Experimental: as §2

[3] = tested on: azoxymethane-induced aberrant crypt foci in male Fisher 344 rats; assay: Azoxymethane-induced aberrant crypt foci (ACF) model; type: in vivo; conditions: in the rat chow
Experimental: The growth inhibition IC50 value obtained for Compound I was 0.7 μM in the SW-480 cell line. […] This established rodent model of azoxymethane (“AOM”)-induced carcinogenesis was used to assess the effects of Compound I (free base and salt) on colon cancer development in vivo. ACF are precursors to colonic tumors, and ACF inhibition is predictive of chemo-preventive efficacy.
In the rats in this experiment, ACF initiation was achieved by two consecutive weekly injections of the carcinogen. Compound I was administered one week prior to ACF initiation and for the duration of the experiment. ACFs were scored after 5 weeks of treatment. Compound I was administered orally to male Fisher 344 rats in the rat chow. Daily food consumption (mg/kg body weight) varied over the course of the study, and therefore Compound I dose was expressed a grams per kg of diet to provide a basis of comparison between doses. […] The experimental groups gained less weight than the controls, which was indicative of bioavailability. However, the weight differences were less than 10% and not considered to affect ACF formation.
The free base of Compound I inhibited ACF formation as measured by a reduction of crypts per colon. […]

DU145 (Prostate) = assay: Neutral red cytotoxicity assay, DU145; type: cell-based, human; conditions: free base, five days
Experimental: as §2

[4] = Acute toxicity study in rats; conditions: rat, in vivo
NCI-H23 (Lung) = assay: Neutral red cytotoxicity assay, NCI-H23; type: cell-based, human; conditions: free base, five days
Experimental: as §2

rats [5] = assay: 28-day study in rats; type: in vivo, rat
HCT-15 (Colon) = assay: Neutral red cytotoxicity assay, HCT-15; type: cell-based, human; conditions: free base, five days
Experimental: as §2

[6] = Acute and seven-dose toxicity in dogs; conditions: both, dog, in vivo, po, 1000 mg/kg
patients = assay: Single, escalating dose human clinical safety study; type: in vivo; conditions: oral
MDA-MB-435 (Breast) = assay: Neutral red cytotoxicity assay, MDA-MB-435; type: cell-based, human; conditions: free base, five days
Experimental: as §2

Colo 205 (Colon) = assay: Neutral red cytotoxicity assay, Colo 205; type: cell-based, human; conditions: free base, five days
Experimental: as §2

NCI-H82 (Lung) = assay: Neutral red cytotoxicity assay, NCI-H82; type: cell-based, human; conditions: free base, five days
Experimental: as §2

UISO-BCA-1 (Breast) = assay: Neutral red cytotoxicity assay, UISO-BCA-1; type: cell-based, human; conditions: free base, five days
Experimental: as §2

[7] = tested on: PrEC primary prostate epithelial cells from normal prostate; assay: Histone-associated DNA fragmentation in PrEC; type: cell-based; conditions: 50 μM, up to 4 days
Experimental: as §1

rats [8] = conditions: rat, in vivo
dogs = conditions: dog, in vivo
HT-29 (Colon) = assay: Neutral red cytotoxicity assay, HT-29; type: cell-based, human; conditions: free base, five days
Experimental: as §2

Structure (SMILES): CC1=C(CC(=O)NCc2ccccc2)c2cc(F)ccc2/C1=C\c1ccncc1 [Compound I, (Z)-5-fluoro-2-methyl-(4-pyridylidene)-3-(N-benzyl)indenylacetamide hydrochloride]
- histone-associated fragmented DNA [1]: time-dependent increase
- GI90 (NCI-H460 (Lung)): 30000 nM
- signs of toxicity (rats [2]; 50 mg/kg/day): no observable signs of toxicity
- treatment-related effects (rats [2]; 500 mg/kg/day): increase in absolute and relative liver weights in female rats
- treatment-related effects (rats [2]; 2000 mg/kg/day): labored breathing and/or abnormal respiratory sounds, decreased weights gains and food consumption in male rats, and increased liver weights in female rats
- GI90 (SW-620 (Colon)): 2500 nM
- body weight difference to controls [3]: less than 10%
- GI90 (DU145 (Prostate)): 2800 nM
- LD50 ([4]; ip, 1000 mg/kg): > 1000 mg/kg
- LD50 ([4]; po): > 4000 mg/kg
- GI90 (NCI-H23 (Lung)): 2500 nM
- organ weights (rats [5]; 28 days, 2000 mg/kg/day): statistically significant increase in liver weights
- clinical observations (rats [5]; 28 days, 50, 500 and 2000 mg/kg/day): no abnormal clinical observations
- GI90 (HCT-15 (Colon)): 3000 nM
- LD50 [6]: > 1000 mg/kg
- side effects (patients): no significant side effects at any dose
- GI90 (MDA-MB-435 (Breast)): 2300 nM
- GI90 (Colo 205 (Colon)): 2400 nM
- GI90 (NCI-H82 (Lung)): 5800 nM
- GI90 (UISO-BCA-1 (Breast)): 4700 nM
- DNA fragmentation [7]: did not affect DNA fragmentation
- body weight gain (rats [8]; ip, 1000 mg/kg): reduced body weight gain
- body weight gain (rats [8]; po, 4000 mg/kg): body weight gains were slightly reduced
- signs of toxicity (dogs; 1000 mg/kg): no signs of toxicity
- drug-related effects (dogs; 1000 mg/kg/day): At no time in either dosing phase were any obvious signs of drug-related effects observed
- GI90 (HT-29 (Colon)): 8000 nM
